Measured values: the NIST ThermoML archive (doi:10.1021/je900812v)
Numbers after ± are expanded uncertainties.

Tests used:
[1] = Liquid; for mass density: 298.15 K, 101.33 kPa, Pycnometric method
[2] = Boiling temperature at pressure P; conditions: 101.3 kPa; Liquid; Ebulliometric method (Recirculating still)
[3] = refractive index (Na D-line) (dimensionless); conditions: 298.15 K; 101.33 kPa; Liquid; Standard Abbe refractometry

## CCCCCOC(C)=O [pentyl ethanoate]
[1]
  mass density: 872.3 ± 0.9 kg/m3
[1]; 421.55 K, Ebulliometric method (Recirculating still)
  vapor or sublimation pressure: 101.3 kPa
[2]
  Boiling temperature at pressure P: 148.40 ± 0.3 °C
[3]
  refractive index: 1.4005 ± 0.0009

## CCCCCO [pentan-1-ol]
[1]
  mass density: 811.2 ± 0.4 kg/m3
[1]; 410.95 K, Ebulliometric method (Recirculating still)
  vapor or sublimation pressure: 101.3 kPa
[2]
  Boiling temperature at pressure P: 137.80 ± 0.3 °C
[3]
  refractive index: 1.4077 ± 0.0008

## CC(C)CCO [3-methylbutan-1-ol]
[1]
  mass density: 807.6 ± 0.2 kg/m3
[1]; 336.35 K
  vapor or sublimation pressure: 5.27 ± 0.27 kPa
[1]; 346.9 K
  vapor or sublimation pressure: 9.25 ± 0.28 kPa
[1]; 354.2 K
  vapor or sublimation pressure: 12.96 ± 0.3 kPa
[1]; 354.3 K
  vapor or sublimation pressure: 13.24 ± 0.3 kPa
[1]; 356.85 K
  vapor or sublimation pressure: 14.83 ± 0.32 kPa
[1]; 359.75 K
  vapor or sublimation pressure: 17.09 ± 0.33 kPa
[1]; 360.65 K
  vapor or sublimation pressure: 17.61 ± 0.33 kPa
[1]; 363.55 K
  vapor or sublimation pressure: 20.13 ± 0.4 kPa
[1]; 364.05 K
  vapor or sublimation pressure: 20.81 ± 0.35 kPa
[1]; 365.45 K
  vapor or sublimation pressure: 21.98 ± 0.37 kPa
[1]; 368.3 K
  vapor or sublimation pressure: 25.18 ± 0.38 kPa
[1]; 369.5 K
  vapor or sublimation pressure: 26.24 ± 0.38 kPa
[1]; 371.5 K
  vapor or sublimation pressure: 28.64 ± 0.4 kPa
[1]; 380.65 K
  vapor or sublimation pressure: 41.65 ± 0.53 kPa
[1]; 381.65 K
  vapor or sublimation pressure: 43.64 ± 0.54 kPa
[1]; 389.6 K
  vapor or sublimation pressure: 59.58 ± 0.67 kPa
[1]; 391.35 K
  vapor or sublimation pressure: 64.3 ± 0.62 kPa
[1]; 392.65 K
  vapor or sublimation pressure: 66.58 ± 0.64 kPa
[1]; 395.55 K
  vapor or sublimation pressure: 74.19 ± 0.68 kPa
[1]; 396.9 K
  vapor or sublimation pressure: 77.47 ± 0.7 kPa
[1]; 398.25 K
  vapor or sublimation pressure: 81.46 ± 0.76 kPa
[1]; 403.05 K
  vapor or sublimation pressure: 96.21 ± 1.2 kPa
[1]; 403.75 K
  vapor or sublimation pressure: 99.99 ± 0.84 kPa
[1]; 404.55 K
  vapor or sublimation pressure: 101.33 ± 0.7 kPa
[1]; 405.15 K
  vapor or sublimation pressure: 103.46 ± 0.88 kPa
[1]; 408.05 K
  vapor or sublimation pressure: 114.26 ± 0.94 kPa
[1]; 410.95 K
  vapor or sublimation pressure: 125.72 ± 0.97 kPa
[1]; 413.05 K
  vapor or sublimation pressure: 133.86 ± 0.98 kPa

## CC(=O)OCCC(C)C [3-methylbutyl ethanoate]
[1]
  mass density: 866.4 ± 0.2 kg/m3
[1]; 368.15 K
  vapor or sublimation pressure: 22.4 ± 0.4 kPa
[1]; 369.35 K
  vapor or sublimation pressure: 23.4 ± 0.4 kPa
[1]; 370.65 K
  vapor or sublimation pressure: 24.6 ± 0.4 kPa
[1]; 371.85 K
  vapor or sublimation pressure: 25.7 ± 0.4 kPa
[1]; 372.45 K
  vapor or sublimation pressure: 26.3 ± 0.4 kPa
[1]; 380.65 K
  vapor or sublimation pressure: 35.3 ± 0.4 kPa
[1]; 381.75 K
  vapor or sublimation pressure: 36.7 ± 0.4 kPa
[1]; 387 K
  vapor or sublimation pressure: 43.9 ± 0.5 kPa
[1]; 387.9 K
  vapor or sublimation pressure: 45.2 ± 0.5 kPa
[1]; 390.95 K
  vapor or sublimation pressure: 50 ± 0.5 kPa
[1]; 392.75 K
  vapor or sublimation pressure: 52.9 ± 0.5 kPa
[1]; 394.25 K
  vapor or sublimation pressure: 55.5 ± 0.5 kPa
[1]; 395.65 K
  vapor or sublimation pressure: 58 ± 0.5 kPa
[1]; 398.65 K
  vapor or sublimation pressure: 63.7 ± 0.6 kPa
[1]; 401.85 K
  vapor or sublimation pressure: 70.1 ± 0.6 kPa
[1]; 403.35 K
  vapor or sublimation pressure: 73.3 ± 0.6 kPa
[1]; 407.15 K
  vapor or sublimation pressure: 81.9 ± 0.7 kPa
[1]; 409.55 K
  vapor or sublimation pressure: 87.8 ± 0.7 kPa
[1]; 410.95 K
  vapor or sublimation pressure: 91.3 ± 0.7 kPa
[1]; 412.85 K
  vapor or sublimation pressure: 96.3 ± 0.7 kPa
[1]; 414.15 K
  vapor or sublimation pressure: 99.8 ± 0.7 kPa
[1]; 414.85 K
  vapor or sublimation pressure: 101.7 ± 0.8 kPa
[1]; 415.35 K
  vapor or sublimation pressure: 103.1 ± 0.8 kPa
[1]; 416.45 K
  vapor or sublimation pressure: 106.2 ± 0.8 kPa
[3]
  refractive index: 1.39893 ± 0.0008
